Laboratory results published in patent US8192962B2, “Processes for detecting toxic substances” (Daikin Industries, Ltd., priority 2001, dated 2012).

System: Genes belonging to other category
Assay: DNA chip mRNA expression in yeast, genes belonging to other category (Table 9)
Format: cell-based, Saccharomyces cerevisiae S288C
Method in brief: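 Ratios compare mRNA levels in stressed and control S. cerevisiae. Each toxicant was applied for two hours to log-phase cultures at 25° C. at a sub-lethal, growth-inhibiting level; fluorescent cDNA (Cy3- or Cy5-dUTP) was hybridized to a genome-wide yeast chip for over 12 h at 65° C.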

SMILES: [Cl][Hg][Cl] [(3), HgCl2]
- The level of expressed mRNA in the presence of chemical substance/The level of expressed mRNA in the absence of chemical substance (yeast gene YKL008C): 2.0
- The level of expressed mRNA in the presence of chemical substance/The level of expressed mRNA in the absence of chemical substance (yeast gene YKL013C): 1.4
- The level of expressed mRNA in the presence of chemical substance/The level of expressed mRNA in the absence of chemical substance (yeast gene YKL039W): 2.4
- The level of expressed mRNA in the presence of chemical substance/The level of expressed mRNA in the absence of chemical substance (yeast gene YKL096W): 8.1
- The level of expressed mRNA in the presence of chemical substance/The level of expressed mRNA in the absence of chemical substance (yeast gene YKL165C): 1.1
- The level of expressed mRNA in the presence of chemical substance/The level of expressed mRNA in the absence of chemical substance (yeast gene YKL193C): 1.1
- The level of expressed mRNA in the presence of chemical substance/The level of expressed mRNA in the absence of chemical substance (yeast gene YLR120C): 2.4
- The level of expressed mRNA in the presence of chemical substance/The level of expressed mRNA in the absence of chemical substance (yeast gene YLR136C): 0.6
- The level of expressed mRNA in the presence of chemical substance/The level of expressed mRNA in the absence of chemical substance (yeast gene YLR178C): 8.8
- The level of expressed mRNA in the presence of chemical substance/The level of expressed mRNA in the absence of chemical substance (yeast gene YLR250W): 1.0
- The level of expressed mRNA in the presence of chemical substance/The level of expressed mRNA in the absence of chemical substance (yeast gene YLR327C): 14.4
- The level of expressed mRNA in the presence of chemical substance/The level of expressed mRNA in the absence of chemical substance (yeast gene YLR356W): 4.9
- The level of expressed mRNA in the presence of chemical substance/The level of expressed mRNA in the absence of chemical substance (yeast gene YLR362W): 1.0
- The level of expressed mRNA in the presence of chemical substance/The level of expressed mRNA in the absence of chemical substance (yeast gene YLR391W): 2.9
- The level of expressed mRNA in the presence of chemical substance/The level of expressed mRNA in the absence of chemical substance (yeast gene YLR429W): 0.6
- The level of expressed mRNA in the presence of chemical substance/The level of expressed mRNA in the absence of chemical substance (yeast gene YMR004W): 1.3
- The level of expressed mRNA in the presence of chemical substance/The level of expressed mRNA in the absence of chemical substance (yeast gene YMR094W): 1.3
- The level of expressed mRNA in the presence of chemical substance/The level of expressed mRNA in the absence of chemical substance (yeast gene YMR104C): 2.2
- The level of expressed mRNA in the presence of chemical substance/The level of expressed mRNA in the absence of chemical substance (yeast gene YMR219W): 1.0
- The level of expressed mRNA in the presence of chemical substance/The level of expressed mRNA in the absence of chemical substance (yeast gene YMR226C): 1.4
- The level of expressed mRNA in the presence of chemical substance/The level of expressed mRNA in the absence of chemical substance (yeast gene YMR275C): 1.2
- The level of expressed mRNA in the presence of chemical substance/The level of expressed mRNA in the absence of chemical substance (yeast gene YMR276W): 1.5
- The level of expressed mRNA in the presence of chemical substance/The level of expressed mRNA in the absence of chemical substance (yeast gene YMR314W): 0.9
- The level of expressed mRNA in the presence of chemical substance/The level of expressed mRNA in the absence of chemical substance (yeast gene YNL006W): 1.3
- The level of expressed mRNA in the presence of chemical substance/The level of expressed mRNA in the absence of chemical substance (yeast gene YNL007C): 5.1
- The level of expressed mRNA in the presence of chemical substance/The level of expressed mRNA in the absence of chemical substance (yeast gene YNL093W): 0.4
- The level of expressed mRNA in the presence of chemical substance/The level of expressed mRNA in the absence of chemical substance (yeast gene YNL333W): 1.7
- The level of expressed mRNA in the presence of chemical substance/The level of expressed mRNA in the absence of chemical substance (yeast gene YNR010W): 0.5
- The level of expressed mRNA in the presence of chemical substance/The level of expressed mRNA in the absence of chemical substance (yeast gene YNR069C): 0.7
- The level of expressed mRNA in the presence of chemical substance/The level of expressed mRNA in the absence of chemical substance (yeast gene YOL013C): 1.0
- The level of expressed mRNA in the presence of chemical substance/The level of expressed mRNA in the absence of chemical substance (yeast gene YOL164W): 1.0
- The level of expressed mRNA in the presence of chemical substance/The level of expressed mRNA in the absence of chemical substance (yeast gene YOR036W): 1.4
- The level of expressed mRNA in the presence of chemical substance/The level of expressed mRNA in the absence of chemical substance (yeast gene YOR117W): 1.7
- The level of expressed mRNA in the presence of chemical substance/The level of expressed mRNA in the absence of chemical substance (yeast gene YOR124C): 1.3
- The level of expressed mRNA in the presence of chemical substance/The level of expressed mRNA in the absence of chemical substance (yeast gene YOR132W): 0.8
- The level of expressed mRNA in the presence of chemical substance/The level of expressed mRNA in the absence of chemical substance (yeast gene YOR157C): 1.2
- The level of expressed mRNA in the presence of chemical substance/The level of expressed mRNA in the absence of chemical substance (yeast gene YOR181W): 1.1
- The level of expressed mRNA in the presence of chemical substance/The level of expressed mRNA in the absence of chemical substance (yeast gene YOR185C): 1.9
- The level of expressed mRNA in the presence of chemical substance/The level of expressed mRNA in the absence of chemical substance (yeast gene YOR198C): 1.4
- The level of expressed mRNA in the presence of chemical substance/The level of expressed mRNA in the absence of chemical substance (yeast gene YOR259C): 0.8
- The level of expressed mRNA in the presence of chemical substance/The level of expressed mRNA in the absence of chemical substance (yeast gene YOR261C): 0.6
- The level of expressed mRNA in the presence of chemical substance/The level of expressed mRNA in the absence of chemical substance (yeast gene YOR288C): 1.1
- The level of expressed mRNA in the presence of chemical substance/The level of expressed mRNA in the absence of chemical substance (yeast gene YOR355W): 1.1
- The level of expressed mRNA in the presence of chemical substance/The level of expressed mRNA in the absence of chemical substance (yeast gene YOR383C): 2.6
- The level of expressed mRNA in the presence of chemical substance/The level of expressed mRNA in the absence of chemical substance (yeast gene YPL089C): 0.5
- The level of expressed mRNA in the presence of chemical substance/The level of expressed mRNA in the absence of chemical substance (yeast gene YPL109C): 0.5
- The level of expressed mRNA in the presence of chemical substance/The level of expressed mRNA in the absence of chemical substance (yeast gene YPL149W): 0.6
- The level of expressed mRNA in the presence of chemical substance/The level of expressed mRNA in the absence of chemical substance (yeast gene YPL154C): 4.2
- The level of expressed mRNA in the presence of chemical substance/The level of expressed mRNA in the absence of chemical substance (yeast gene YPR103W): 1.3
- The level of expressed mRNA in the presence of chemical substance/The level of expressed mRNA in the absence of chemical substance (yeast gene YPR108W): 1.3
